We go through 14 molecules from PubChem BioAssay (NCI).

Some test systems named below: SR leukemia; UACC-257 melanoma; OVCAR-4 ovarian; SK-MEL-2 melanoma; OVCAR-5 ovarian; IGROV1 ovarian; SK-OV-3 ovarian; OVCAR-3 ovarian; OVCAR-8 ovarian; SF-539 CNS.
Experiment in all cases: NCI tumour cell line growth inhibition, 48 h

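1) Cells in 96-well plates. 2) Compound, 48 h, 5 concentrations. 3) Linear interpolation between surrounding doses. 4) Unreached endpoint = highest concentration. At the GI50, growth is halved. TGI is the concentration that stops growth completely.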

As for `N#Cc1c(NC(=O)CN2CCOCC2)sc2c1CCCC2`, the GI50 with SR leukemia, in the experiment with UACC-257 melanoma, in the experiment with OVCAR-4 ovarian, with SK-MEL-2 melanoma, in the experiment on OVCAR-5 ovarian and in the experiment on IGROV1 ovarian was > 25 µM each time. For the same molecule, the GI50 in the experiment with SK-OV-3 ovarian, in the experiment on OVCAR-3 ovarian, in the experiment on OVCAR-8 ovarian and in the experiment with SF-539 CNS was > 25 µM each time. Besides, the TGI with SR leukemia, with UACC-257 melanoma, with OVCAR-4 ovarian, in the experiment on SK-MEL-2 melanoma, in the experiment on OVCAR-5 ovarian and in the experiment with IGROV1 ovarian was > 25 µM in each case. Moreover, the TGI with SK-OV-3 ovarian, with OVCAR-3 ovarian, in the experiment with OVCAR-8 ovarian and in the experiment on SF-539 CNS was > 25 µM each time.

With `N#CCC(=O)N/N=C1\C(=O)N(c2ccc(Cl)cc2)C(=O)C(=O)C1c1nc2ccccc2o1` (configuration not stated), the TGI in the experiment on SR leukemia, with UACC-257 melanoma, with OVCAR-4 ovarian, in the experiment on SK-MEL-2 melanoma, in the experiment on IGROV1 ovarian and in the experiment with SK-OV-3 ovarian was > 100 µM in each case. Moreover, the TGI in the experiment with OVCAR-3 ovarian, with OVCAR-8 ovarian and in the experiment with SF-539 CNS was > 100 µM throughout.

For `Cc1ccccc1N=Nc1c(O)[nH]c2ccccc12`, the TGI in the experiment with SR leukemia, in the experiment on UACC-257 melanoma, in the experiment on OVCAR-4 ovarian, in the experiment on SK-MEL-2 melanoma, in the experiment on OVCAR-5 ovarian and in the experiment with IGROV1 ovarian was > 100 µM each time. Besides, the TGI in the experiment on SK-OV-3 ovarian, with OVCAR-3 ovarian and with OVCAR-8 ovarian was > 100 µM throughout.

Consider `Cc1nc(/N=C(\N)NC(=O)Nc2ccccc2Cl)sc1C`, for which the GI50 in the experiment on SR leukemia is 0.173 µM; in the experiment on UACC-257 melanoma, 1.44 µM; in the experiment with SK-MEL-2 melanoma, 0.571 µM; in the experiment with OVCAR-5 ovarian, 1.32 µM; with IGROV1 ovarian, 0.528 µM; in the experiment with SK-OV-3 ovarian it was 0.735 µM. The GI50 was 0.299 µM in the experiment with OVCAR-3 ovarian, 0.592 µM in the experiment on OVCAR-8 ovarian and 0.413 µM with SF-539 CNS. Besides, the TGI was 35.5 µM in the experiment with SR leukemia; > 100 µM with UACC-257 melanoma; 16.4 µM in the experiment on SK-MEL-2 melanoma; > 100 µM in the experiment with OVCAR-5 ovarian; > 100 µM with IGROV1 ovarian; 5.54 µM in the experiment with SK-OV-3 ovarian. For the same molecule, the TGI was 1.28 µM in the experiment with OVCAR-3 ovarian, > 40.2 µM in the experiment on OVCAR-8 ovarian and 8.34 µM in the experiment on SF-539 CNS.

On to `CCCCN(CCCC)CCCN=c1nc2c(c(N)n1-c1ccccc1)c(=S)n(-c1ccccc1)c(=S)n2-c1ccccc1`, for which the GI50 is 0.273 µM in the experiment on SR leukemia; 0.609 µM with UACC-257 melanoma; 0.994 µM in the experiment on OVCAR-4 ovarian; 1.74 µM in the experiment on SK-MEL-2 melanoma; 1.67 µM in the experiment on OVCAR-5 ovarian; 1.9 µM with IGROV1 ovarian. In addition, the GI50 in the experiment with SK-OV-3 ovarian was 1.55 µM; in the experiment with OVCAR-3 ovarian it was 0.997 µM; in the experiment with SF-539 CNS, 1.36 µM. Also, the TGI in the experiment on SR leukemia is 1.46 µM; with UACC-257 melanoma, 1.27 µM; with OVCAR-4 ovarian, 2.46 µM; in the experiment with SK-MEL-2 melanoma, 3.47 µM; in the experiment with OVCAR-5 ovarian it was 3.24 µM; with IGROV1 ovarian, 3.79 µM. Further, the TGI is 3.04 µM with SK-OV-3 ovarian, 2.3 µM with OVCAR-3 ovarian and 2.84 µM in the experiment on SF-539 CNS.

For the molecule `CN(c1ccccc1)C1C(=O)N(c2ccccc2)C1/C=C/c1ccccc1` (configuration not stated), the TGI with SR leukemia, in the experiment with UACC-257 melanoma, in the experiment with SK-MEL-2 melanoma, in the experiment with OVCAR-5 ovarian, in the experiment on IGROV1 ovarian and in the experiment on SK-OV-3 ovarian was > 100 µM in each case. The TGI in the experiment with OVCAR-3 ovarian, in the experiment with OVCAR-8 ovarian and with SF-539 CNS was > 100 µM in each case.

For `COc1cccc(C2NC(=S)NC(C)=C2C(=O)Nc2ccc(F)c(Cl)c2)c1` (configuration not stated), the GI50 in the experiment with SR leukemia was 15.8 µM; in the experiment on UACC-257 melanoma, 10.4 µM; with SK-MEL-2 melanoma, 29.3 µM; in the experiment with OVCAR-5 ovarian, 12.1 µM; in the experiment with IGROV1 ovarian, 27.6 µM; with SK-OV-3 ovarian, > 50 µM. Moreover, the GI50 in the experiment with OVCAR-3 ovarian is 41.3 µM; in the experiment on OVCAR-8 ovarian, 34.6 µM; in the experiment with SF-539 CNS, > 50 µM. Also, the TGI in the experiment with SR leukemia is 40.2 µM; in the experiment on UACC-257 melanoma, 30.7 µM; with SK-MEL-2 melanoma, > 50 µM; in the experiment with OVCAR-5 ovarian it was 38.9 µM; in the experiment on IGROV1 ovarian it was > 50 µM; in the experiment with SK-OV-3 ovarian it was > 50 µM. Moreover, the TGI in the experiment on OVCAR-3 ovarian, with OVCAR-8 ovarian and in the experiment on SF-539 CNS was > 50 µM throughout.

`O=C1C(Cl)=C(Nc2cccc(O)c2)C(=O)N1c1ccc(Cl)c(Cl)c1`: the GI50 is 14.2 µM in the experiment with SR leukemia; 34.4 µM with OVCAR-4 ovarian; 54.8 µM in the experiment with SK-MEL-2 melanoma; 18 µM in the experiment with OVCAR-5 ovarian; 28.4 µM with IGROV1 ovarian; 25.5 µM in the experiment on SK-OV-3 ovarian. Besides, the GI50 is 17.9 µM in the experiment on OVCAR-3 ovarian and 23.6 µM with OVCAR-8 ovarian. Besides, the TGI with SR leukemia was 67.1 µM; with OVCAR-4 ovarian, > 100 µM; in the experiment with SK-MEL-2 melanoma, > 100 µM; in the experiment with OVCAR-5 ovarian, 35.5 µM; with IGROV1 ovarian it was > 100 µM; in the experiment with SK-OV-3 ovarian, 73.3 µM. In addition, the TGI was 36.4 µM in the experiment on OVCAR-3 ovarian and 52.2 µM in the experiment with OVCAR-8 ovarian.

For the molecule `Nc1ccccc1NC(=O)c1ccc(CN2CCC/C(=C\c3cccc(Cl)c3)C2=O)cc1`, the GI50 with SR leukemia is 0.156 µM; in the experiment on OVCAR-4 ovarian, 1.49 µM; with SK-MEL-2 melanoma, 1.23 µM; in the experiment with OVCAR-5 ovarian, 0.45 µM; with IGROV1 ovarian it was 0.337 µM; in the experiment with SK-OV-3 ovarian, 0.626 µM. Further, the GI50 is 0.406 µM in the experiment on OVCAR-3 ovarian, 0.334 µM with OVCAR-8 ovarian and 0.695 µM in the experiment with SF-539 CNS. In addition, the TGI was > 100 µM with SR leukemia; > 100 µM in the experiment with OVCAR-4 ovarian; 18.2 µM in the experiment with SK-MEL-2 melanoma; > 100 µM in the experiment on OVCAR-5 ovarian; 13.6 µM with IGROV1 ovarian; 26.4 µM in the experiment with SK-OV-3 ovarian. For the same molecule, the figures for the TGI in the experiment on OVCAR-3 ovarian, with OVCAR-8 ovarian and in the experiment on SF-539 CNS were 7.7 µM, > 100 µM and 5.33 µM, respectively.

For `CC[CH2][Sn]([Cl])([Cl])[CH2]CC`, the GI50 in the experiment with SR leukemia was 3.38 µM; in the experiment with UACC-257 melanoma, 4.59 µM; in the experiment on OVCAR-4 ovarian it was 12.9 µM; in the experiment on SK-MEL-2 melanoma it was 10.8 µM; in the experiment with OVCAR-5 ovarian, 16.6 µM; with SK-OV-3 ovarian it was 25.7 µM. Also, the GI50 in the experiment on OVCAR-3 ovarian was 12.9 µM; in the experiment with OVCAR-8 ovarian, 14.7 µM; with SF-539 CNS it was 11.1 µM. For the same molecule, the TGI with SR leukemia worked out at 80.7 µM; in the experiment with UACC-257 melanoma, 19.2 µM; with OVCAR-4 ovarian, 25.6 µM; in the experiment with SK-MEL-2 melanoma it was 25.6 µM; with OVCAR-5 ovarian, 31 µM; in the experiment with SK-OV-3 ovarian, 70.8 µM. Further, the values for the TGI in the experiment with OVCAR-3 ovarian, in the experiment on OVCAR-8 ovarian and in the experiment on SF-539 CNS were 26.1 µM, 30.1 µM and 25 µM, respectively.

Regarding `CC(=O)OCC1OC(OC2=C(CC=C(Cl)Cl)C(=O)c3ccccc3C2=O)C(OC(C)=O)C(OC(C)=O)C1OC(C)=O` (configuration not stated), the GI50 was 3.11 µM in the experiment on SR leukemia; 8.45 µM in the experiment on UACC-257 melanoma; 3.33 µM with SK-MEL-2 melanoma; 11.8 µM with OVCAR-5 ovarian; 0.869 µM with IGROV1 ovarian; 15.1 µM in the experiment on SK-OV-3 ovarian. Also, the results for the GI50 in the experiment with OVCAR-3 ovarian, in the experiment on OVCAR-8 ovarian and in the experiment with SF-539 CNS were 2.27 µM, 2.96 µM and 4.09 µM, respectively. The TGI is > 100 µM in the experiment with SR leukemia; 21.4 µM in the experiment with UACC-257 melanoma; 9.25 µM in the experiment with SK-MEL-2 melanoma; 28.6 µM in the experiment on OVCAR-5 ovarian; 3.11 µM with IGROV1 ovarian; 28.7 µM in the experiment on SK-OV-3 ovarian. For the same molecule, the results for the TGI with OVCAR-3 ovarian, with OVCAR-8 ovarian and with SF-539 CNS were 4.88 µM, 8.29 µM and 14.6 µM, respectively.

With `COC(=O)[C@@]1(C)CC[C@]2(C)CC[C@]3(C)C4=CC=C5C(=CC(=O)C(O)=C5C)[C@]4(C)CC[C@@]3(C)[C@@H]2C1`, the GI50 in the experiment on SR leukemia is 0.19 µM; in the experiment on UACC-257 melanoma, 0.279 µM; in the experiment with OVCAR-4 ovarian, 0.153 µM; in the experiment with SK-MEL-2 melanoma, 0.24 µM; in the experiment on OVCAR-5 ovarian, 0.44 µM; in the experiment with IGROV1 ovarian, 0.198 µM. Further, the GI50 is 0.775 µM in the experiment with SK-OV-3 ovarian, 0.169 µM in the experiment with OVCAR-3 ovarian and 0.26 µM in the experiment with SF-539 CNS. Also, the TGI in the experiment on SR leukemia stood at 0.564 µM; with UACC-257 melanoma, 0.767 µM; with OVCAR-4 ovarian, 0.424 µM; with SK-MEL-2 melanoma it was 0.555 µM; with OVCAR-5 ovarian, 1.5 µM; with IGROV1 ovarian it was 0.46 µM. Besides, the TGI in the experiment with SK-OV-3 ovarian is 2.01 µM; with OVCAR-3 ovarian, 0.325 µM; in the experiment on SF-539 CNS, 0.554 µM.

Regarding `O=C(NNC(=O)c1ccncc1)c1ccncc1`, the TGI in the experiment on SR leukemia, with UACC-257 melanoma, in the experiment with OVCAR-4 ovarian, in the experiment on SK-MEL-2 melanoma, with OVCAR-5 ovarian and in the experiment with IGROV1 ovarian was > 100 µM in each case. In addition, the TGI with SK-OV-3 ovarian, with OVCAR-3 ovarian and with OVCAR-8 ovarian was > 100 µM throughout.

With `CC(C)c1cccc(C(C)C)c1NC(=O)C(=O)C(C(=O)c1ccc2ccccc2c1)C1OC(=O)c2ccccc21` (configuration not stated), the TGI in the experiment on SR leukemia, in the experiment on UACC-257 melanoma, with OVCAR-4 ovarian, with SK-MEL-2 melanoma, in the experiment on OVCAR-5 ovarian and with IGROV1 ovarian was > 100 µM each time. Further, the TGI in the experiment with SK-OV-3 ovarian, in the experiment on OVCAR-3 ovarian and with SF-539 CNS was > 100 µM in each case.
